{"source": "patent US8030352B2", "about": "“Method of producing retinyl esters” (Unilever Home & Personal Care USA, division of Conopco, Inc., priority 2002, dated 2011)", "experiment": "Retinyl ester stability in moisturising cream formulations (HPLC)", "format": "physicochemical", "settings": "0.03 and 0.15% retinyl ester in cream; stored at 22, 30, 45 and 50° C.; sampled over 35 days; FIGS. 1 and 2", "experimental": "Retinyl Linoleate from National Starch Corp. and the retinyl ester product from example 1 were blended into moisturising cream formulations shown below in Formulations 1 and 2 at a level of 0.03 and 0.15% of the retinyl ester. The creams were stored at 22° C., 30° C., 45° C. and 50° C. and samples taken at time 0, and twice more over 35 days as shown in FIGS. 1 and 2.\nThe retinyl esters were extracted from the base cream 60/40 acetone/acetonitrile, stirred for 10 minutes, filtered and then injected These were then analysed by HPLC according to the conditions below.\nFIGS. 1 and 2 show the stability results for the samples.", "data": [{"smiles": "CCCCCCCCCCCCCCCC(=O)OC/C=C(C)/C=C/C=C(C)/C=C/C1=C(C)CCCC1(C)C", "note": "[retinyl palmitate]", "values": [{"measurement": "stability in moisturising cream", "result": "only as stable as retinyl linoleate (National Starch)"}]}]}
